From patent US7053107B2, “Indazole compounds and pharmaceutical compositions for inhibiting protein kinases, and methods for their use” (Agouron Pharmaceuticals, Inc., priority 2002, dated 2006)

Columns and labels:
FGF-R1 = target: T1, FGF-R1 (Homo sapiens, UniProt P11362, C488A/C584S/L457V); assay: Fibroblast Growth Factor (FGF-R) spectrophotometric assay; type: biochemical; conditions: 1 μM compound; read-out: FGF-P % inhibit @1 μM
T1 construct: starting from the endogenous methionine residue 456 to glutamate 766; made in house; host or cells: baculovirus vector expression system
T1 sequence (P11362 456-766 L457V/C488A/C584S): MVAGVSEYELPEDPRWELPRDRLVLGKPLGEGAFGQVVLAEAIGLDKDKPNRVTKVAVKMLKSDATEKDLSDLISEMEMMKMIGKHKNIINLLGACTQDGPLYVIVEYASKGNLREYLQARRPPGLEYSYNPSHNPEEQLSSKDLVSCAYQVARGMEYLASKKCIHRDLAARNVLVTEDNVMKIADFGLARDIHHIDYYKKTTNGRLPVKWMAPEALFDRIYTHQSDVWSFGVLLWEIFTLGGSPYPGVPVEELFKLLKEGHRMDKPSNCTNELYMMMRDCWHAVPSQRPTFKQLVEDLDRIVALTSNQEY
Description: The intracellular kinase domain of human FGF-R1 was expressed using the baculovirus vector expression system starting from the endogenous methionine residue 456 to glutamate 766, according to the residue numbering system of Mohammadi et al., Mol. Cell. Biol., 16, 977–989 (1996). In addition, the construct also has the following 3 amino acid substitutions: L457V, C488A, and C584S.
(§1) The production of ADP from ATP that accompanies phosphoryl transfer was coupled to oxidation of NADH using phosphoenolpyruvate (PEP) and a system having pyruvate kinase (PK) and lactic dehydrogenase (LDH). The oxidation of NADH was monitored by following the decrease of absorbance at 340 nm (e340=6.22 cm^−1 mM^−1) using a Beckman DU 650 spectrophotometer. Assay conditions for phosphorylated VEGF-R2A50 (indicated as FLVK-P in the tables below) were the following: 1 mM PEP; 250 μM NADH; 50 units of LDH/mL; 20 units of PK/mL; 5 mM DTT; 5.1 mM poly(E4Y1); 1 mM ATP; and 25 mM MgCl2 in 200 mM HEPES, pH 7.5. Assay conditions for unphosphorylated VEGF-R2Δ50 (indicated as FLVK in the tables) were the following: 1 mM PEP; 250 μM NADH; 50 units of LDH/mL; 20 units of PK/mL; 5 mM DTT; […]; 3 mM ATP; and 60 mM MgCl2 and 2 mM MnCl2 in 200 mM HEPES, pH 7.5. Assays were initiated with 5 to 40 nM of enzyme. Ki values were determined by measuring enzyme activity in the presence of varying concentrations of test compounds. The data were analyzed using Enzyme Kinetic and Kaleidagraph software.
The spectrophotometric assay was carried out as described above for VEGF-R2, except for the following changes in concentration: FGF-R=50 nM, ATP=2 mM, and poly(E4Y1)=15 mM.

[1] = system: human umbilical vein endothelial cells (HUVEC); assay: HUVEC Proliferation Assay (VEGF-stimulated); type: cell-based
Experimental: This assay determines the ability of a test compound to inhibit the growth factor-stimulated proliferation of human umbilical vein endothelial cells (“HUVEC”). HUVEC cells (passage 3–4, Clonetics, Corp.) were thawed into EGM2 culture medium (Clonetics Corp) in T75 flasks. Fresh EGM2 medium was added to the flasks 24 hours later. Four or five days later, cells were exposed to another culture medium (F12K medium supplemented with 10% fetal bovine serum (FBS), 60 μg/mL endothelial cell growth supplement (ECGS), and 0.1 mg/mL heparin). Exponentially-growing HUVEC cells were used in experiments thereafter. Ten to twelve thousand HUVEC cells were plated in 96-well dishes in 100 μl of rich, culture medium (described above). The cells were allowed to attach for 24 hours in this medium. The medium was then removed by aspiration and 105 μl of starvation media (F12K+1% FBS) was added to each well. After 24 hours, 15 μl of test agent dissolved in 1% DMSO in starvation medium or this vehicle alone was added into each treatment well; the final DMSO concentration was 0.1%. One hour later, 30 μl of VEGF (30 ng/mL) in starvation media was added to all wells except those containing untreated controls; the final VEGF concentration was 6 ng/mL. Cellular proliferation was quantified 72 hours later by MTT dye reduction, at which time cells were exposed for 4 hours MTT (Promega Corp.). Dye reduction was stopped by addition of a stop solution (Promega Corp.) and absorbance at 595λ was determined on a 96-well spectrophotometer plate reader.
IC50 values were calculated by curve-fitting the response of A^595 to various concentrations of the test agent; typically, seven concentrations separated by 0.5 log were employed, with triplicate wells at each concentration. For screening compound library plates, one or two concentrations (one well per concentration) were employed, and the % inhibition was calculated by the following formula: % inhibition=(control−test)[…](control−starvation) where
control=A^595 when VEGF is present without test agent
test=A^595 when VEGF is present with test agent
starvation=A^595 when VEGF and test agent are both absent.

HUVEC = assay: bFGF Huvec; type: cell-based; conditions: Homo sapiens
[2] = target: T2, unphosphorylated VEGF-R2Δ50 (Homo sapiens, UniProt P35968, DEL940-989/E990V); assay: VEGF-R2 coupled spectrophotometric assay, unphosphorylated construct (FLVK); type: biochemical; conditions: for inhibition at 0.05 µM: % inhibition at 50 nM compound, read-out: FLVK Ki % inh @ 50 nM
T2 construct: VEGF-R2Δ50 contains residues 806–939 and 990–1171; made in house; host or cells: baculovirus/insect cell system
T2 sequence (P35968 with tags, fused parts or gaps DEL940-989/E990V limits assumed): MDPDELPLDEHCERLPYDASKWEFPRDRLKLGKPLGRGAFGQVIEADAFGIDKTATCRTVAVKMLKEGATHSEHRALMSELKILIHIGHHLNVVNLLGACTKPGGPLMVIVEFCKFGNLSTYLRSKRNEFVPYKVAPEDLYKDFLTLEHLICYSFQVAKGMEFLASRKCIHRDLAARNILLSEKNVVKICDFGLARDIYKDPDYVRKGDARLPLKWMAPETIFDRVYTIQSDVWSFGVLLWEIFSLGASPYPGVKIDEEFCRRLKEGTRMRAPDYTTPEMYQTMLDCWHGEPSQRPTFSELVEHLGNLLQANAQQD
Description: This construct determines the ability of a test compound to inhibit tyrosine kinase activity. A construct (VEGF-R2Δ50) of the cytosolic domain of human vascular endothelial growth factor receptor 2 (VEGF-R2) lacking the 50 central residues of the 68 residues of the kinase insert domain was expressed in a baculovirus/insect cell system. Of the 1356 residues of full-length VEGF-R2, VEGF-R2Δ50 contains residues 806–939 and 990–1171, and also one point mutation (E99OV) within the kinase insert domain relative to wild-type VEGF-R2. Autophosphorylation of the purified construct was performed by incubation of the enzyme at a concentration of 4 μM in the presence of 3 mM ATP and 40 mM MgCl2 in 100 mM HEPES, pH 7.5, containing 5% glycerol and 5 mM DTT, at 4° C. for 2 h. […] See Parast et al., Biochemistry, 37,16788–16801 (1998).
as §1

[3] = Human Liver Microsome (HLM) Assay; type: in vitro ADME
Experimental: Compound metabolism in human liver microsomes was measured by LC-MS analytical assay procedures as follows. First, human liver microsomes (HLM) were thawed and diluted to 5 mg/mL with cold 100 mM potassium phosphate (KPO4) buffer. Appropriate amounts of KPO4 buffer, NADPH-regenerating solution (containing B-NADP, glucose-6-phosphate, glucose-6-phosphate dehydrogenase, and MgCl2), and HLM were preincubated in 13×100 mm glass tubes at 37 C. for 10 min. (3 tubes per test compound—triplicate). Test compound (5 µM final) was added to each tube to initiate reaction and was mixed by gentle vortexing, followed by incubation at 37° C. […] Samples were centrifuged at 4000 rpm for 20 min. to precipitate proteins and salt (Beckman Allegra 6KR, S/N ALK98DO6, #634). Supernatant was transferred to new 12×75 mm glass tubes and evaporated by Speed-Vac centrifugal vacuum evaporator. Samples were reconstituted in 200 μL 0.1% formic acid/acetonitrile (90/10) and vortexed vigorously to dissolve. The samples were then transferred to separate polypropylene microcentrifuge tubes and centrifuged at 14000×g for 10 min. (Fisher Micro 14, S/N M0017580). […]
The combined compound samples were injected into the LC-MS system, composed of a Hewlett-Packard HP 1100 diode array HPLC and a Micromass Quattro II triple quadruple mass spectrometer operating in positive electrospray SIR mode (programmed to scan specifically for the molecular ion of each test compound. Each test compound peak was integrated at each timepoint. […]

PDGFRβ = target: T3, PDGFRβ (Homo sapiens, UniProt P09619); assay: PAE-PDGFRβ Phosphorylation in PAE-PDGFRB Cells Assay; type: cell-based; conditions: PAE cells overexpressing human PDGFRβ; read-out: PAE PDGFR autophos IC50
T3 construct: expressed in transfected cells; host or cells: porcine aorta endothelial (PAE) cells
T3 sequence (P09619 33-1106): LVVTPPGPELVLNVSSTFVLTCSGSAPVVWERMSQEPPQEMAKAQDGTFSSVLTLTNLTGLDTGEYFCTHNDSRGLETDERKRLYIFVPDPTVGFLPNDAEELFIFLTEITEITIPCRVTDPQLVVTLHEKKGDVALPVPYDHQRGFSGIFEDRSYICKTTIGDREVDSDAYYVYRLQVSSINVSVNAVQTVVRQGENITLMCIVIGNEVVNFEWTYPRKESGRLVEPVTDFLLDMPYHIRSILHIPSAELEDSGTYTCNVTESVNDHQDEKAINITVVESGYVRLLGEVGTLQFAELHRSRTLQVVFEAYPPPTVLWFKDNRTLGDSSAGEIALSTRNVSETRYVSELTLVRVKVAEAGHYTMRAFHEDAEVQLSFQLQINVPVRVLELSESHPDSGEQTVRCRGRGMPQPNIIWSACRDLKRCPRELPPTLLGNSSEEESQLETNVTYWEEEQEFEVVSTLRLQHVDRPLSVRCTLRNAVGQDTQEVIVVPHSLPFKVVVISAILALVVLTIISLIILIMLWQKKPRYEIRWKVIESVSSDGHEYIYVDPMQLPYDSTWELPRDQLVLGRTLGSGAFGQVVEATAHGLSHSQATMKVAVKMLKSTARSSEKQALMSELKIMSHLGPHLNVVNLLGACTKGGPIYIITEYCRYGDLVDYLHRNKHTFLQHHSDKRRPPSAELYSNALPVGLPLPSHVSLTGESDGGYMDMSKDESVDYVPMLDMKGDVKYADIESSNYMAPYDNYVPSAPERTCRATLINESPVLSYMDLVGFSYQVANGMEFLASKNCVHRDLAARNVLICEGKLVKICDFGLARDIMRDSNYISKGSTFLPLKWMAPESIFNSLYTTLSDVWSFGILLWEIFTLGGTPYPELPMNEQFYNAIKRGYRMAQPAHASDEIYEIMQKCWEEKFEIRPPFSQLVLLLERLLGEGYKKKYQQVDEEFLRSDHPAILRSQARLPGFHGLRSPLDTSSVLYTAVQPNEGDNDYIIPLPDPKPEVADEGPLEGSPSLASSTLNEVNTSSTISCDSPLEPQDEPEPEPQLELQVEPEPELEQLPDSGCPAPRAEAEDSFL
Experimental: This assay determines the ability of a test compound to inhibit the autophosphorylation of PDGFRβ in porcine aorta endothelial (PAE)-PDGFRβ cells. PAE cells that overexpress human PDGFRβ were used in this assay. The cells were cultured in Ham's F12 media supplemented with 10% fetal bovine serum (FBS) and 400 ug/ml G418. Twenty thousands cells were seeded in each well of a 96-well plate in 50 μL of growth media and allowed to attach for 6 hours at 37° C. Cells were then exposed to the starvation media (Ham's F12 media supplemented with 0.1% FBS) for 16 hours. After the starvation period was over, 10 μL of test agent in 5% DMSO in starvation media were added to the test wells and 10 μL of the vehicle (5% DMSO in starvation media) were added into the control wells. The final DMSO concentration in each well was 0.5%. Plates were incubated at 37° C. for 1 hour and the cells were then stimulated with 1 μg/mL PDGF-BB (R & D System) in the presence of 2 mM Na3VO4 for 8 minutes. The cells were washed once with 1 mm Na3VO4 in HBSS and lysed by adding 50 μL per well of lysis buffer. One hundred μL of dilution buffer were then added to each well and the diluted cell lysate was transferred to a 96-well goat ant-rabbit coated plate (Pierce), which was pre-coated with Rabbit anti Human PDGFRβ antibody (Santa Cruz). The plates were incubated at room temperature for 2 hours and washed seven times with 1% Tween 20 in PBS. HRP-PY20 (Santa Cruz) was diluted and added to the plate for a 30-minute incubation. Plates were then washed again and TMB peroxidase substrate (Kirkegaard & Perry) was added for a 10-minute incubation. One hundred μL of 0.09 N H2SO4 was added into each well of the 96-well plate to stop the reaction. Phosphorylation status was assessed by spectrophotometer reading at 450 nm. IC50 values were calculated by curve fitting using a four-parameter analysis.

LCK = target: T4, LCK (Homo sapiens, UniProt P06239, C224D/P223M); assay: Lymphocyte-Specific Protein-Tyrosine Kinase (LCK) spectrophotometric assay; type: biochemical; conditions: 1 μM compound; read-out: LckP* % inhibit @1 μM
T4 construct: starting from amino acid residue 223 to the end of the protein at residue 509; made in house; host or cells: insect cells
T4 sequence (P06239 223-509 P223M/C224D): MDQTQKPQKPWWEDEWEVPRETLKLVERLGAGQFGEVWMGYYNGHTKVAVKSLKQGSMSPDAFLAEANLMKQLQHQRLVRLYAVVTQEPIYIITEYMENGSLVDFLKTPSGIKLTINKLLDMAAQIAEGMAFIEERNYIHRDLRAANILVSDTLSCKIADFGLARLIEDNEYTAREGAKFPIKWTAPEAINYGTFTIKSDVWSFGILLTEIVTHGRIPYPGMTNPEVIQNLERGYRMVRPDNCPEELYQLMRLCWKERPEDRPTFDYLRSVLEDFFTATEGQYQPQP

SMILES	inhibition at 1 µM (FGF-R1) [%]	inhibition at 0.05 µM [2] [%]	% remaining (HLM) ([3]; @0.5 h)	IC50 (PDGFRβ) [nM]	Ki ([2]; cell prints nM instead of % inhibition) [nM]	inhibition at 1 µM (LCK) [%]	% remaining (HLM) ([3]; @2 h)	IC50 [1] [nM]	IC50 (HUVEC) [nM]
Cc1ccnc(/C=C/c2n[nH]c3cc(Nc4ccccc4C(=O)NCc4cc(C)nn4C)ccc23)c1 [Example 41, N-(2,5-Dimethyl-2H-pyrazol-3-ylmethyl)-2-{3-[(E)-2-(4-methyl-pyridin-2-yl)-vinyl]-1H-indazol-6-ylamino}-benzamide]	11	45	–	–	–	–	–	6.4	3780
Cc1cc(CNC(=O)c2ccccc2Nc2ccc3c(/C=N/n4cccc4)n[nH]c3c2)n(C)n1 [Example 61, N-(2,5-Dimethyl-2H-pyrazol-3-ylmethyl)-2-[3-(pyrrol-1-yliminomethyl)-1H-indazol-6-ylamino]-benzamide]	14	65	–	–	–	–	–	6.5	662
O=C(NCc1ccccc1)c1ccccc1Nc1ccc2c(/C=C/c3ccccn3)n[nH]c2c1 [Example 3(g), N-Benzyl-2-[3-((E)-2-pyridin-2-yl-vinyl)-1H-indazol6-ylamino]-benzamide]	72	95	72@0.5 h %	–	–	28	–	1.1	–
Cc1cc(C)nc(/C=C/c2n[nH]c3cc(Nc4ccccc4C(=O)NCC#CC4CC4)ccc23)c1 [Example 18, N-(3-Cycloprop-2-ynyl)-2-{3-[(E)-2-(4,6-dimethyl-pyridin-2-yl)-vinyl]-1H-indazol-6-ylamino}-benzamide]	59	94	–	–	–	–	–	–	1880
CONC(=O)c1ccccc1Nc1ccc2c(/C=C/c3ccccn3)n[nH]c2c1 [Example 3(a), N-Methoxy-2-[3-((E)-2-pyridin-2-yl-vinyl)-1H-indazol-6-ylamino]-benzamide]	99	98	–	–	–	30	–	12.7	–
O=C(NCc1ccco1)c1ccccc1Nc1ccc2c(/C=C/c3ccccn3)n[nH]c2c1 [Example 3(i), N-Furan-2-ylmethyl-2-[3-((E)-2-pyridin-2-yl-vinyl)-1H-indazol-6-ylamino]-benzamide]	45	88	–	1.9	–	22	–	0.2	1000

The next lines start with results.

inhibition at 1 µM (FGF-R1) [%]	inhibition at 0.05 µM [2] [%]	% remaining (HLM) ([3]; @0.5 h)	IC50 (PDGFRβ) [nM]	Ki ([2]; cell prints nM instead of % inhibition) [nM]	inhibition at 1 µM (LCK) [%]	% remaining (HLM) ([3]; @2 h)	SMILES	IC50 [1] [nM]	IC50 (HUVEC) [nM]
–	–	86@0.5 h %	5.8	3.11	–	–	Cc1cc(CNC(=O)c2ccccc2Nc2ccc3c(/C=C/c4ccccn4)n[nH]c3c2)n(C)n1 [Example 65, N-(2,5-Dimethyl-2H-pyrazol-3-ylmethyl)-2-[3-(2-pyridin-2-yl-vinyl)-1H-indazol-6-ylamino]-benzamide]	3.4	–
29	64	–	12.3	–	–	–	C=C(C)CNC(=O)c1ccccc1Nc1ccc2c(/C=C/c3cc(C)cc(C)n3)n[nH]c2c1 [Example 15, 2-{3-[2-(4,6-Dimethyl-pyridin-2-yl)-vinyl]-1H-indazol-6-ylamino}-N-(2-methyl-allyl)-benzamide]	1.5	1610
96	98	–	–	–	27	84@2 h %	C=CCONC(=O)c1ccccc1Nc1ccc2c(/C=C/c3ccccn3)n[nH]c2c1 [Example 3(b), N-Allyloxy-2-[3-((E)-2-pyridin-2-yl-vinyl)-1H-indazol-6-ylamino]-benzamide]	5.7	–
